Laboratory results from US6362166B1, “Antipicornaviral compounds and methods for their use and preparation” (Agouron Pharmaceuticals, Inc., priority 1996, dated 2002).
Like-named read-outs stand apart in the source and are kept apart here.

Assays:
[1] = target: T1, Recombinant Rhinovirus 3C protease (RVP) serotype-14 (Human rhinovirus 14, UniProt P03303); assay: Inhibition of Rhinovirus Protease (fluorescence resonance energy transfer assay), serotype 14; assay type: biochemical, human rhinovirus (HRV); conditions: for kinact/KI: pH 7.6, read-out: kobs/I
T1 construct: Recombinant Rhinovirus 3C proteases from serotypes 14, 16, 2 or 89; made in house
T1 sequence (P03303 1538-1719): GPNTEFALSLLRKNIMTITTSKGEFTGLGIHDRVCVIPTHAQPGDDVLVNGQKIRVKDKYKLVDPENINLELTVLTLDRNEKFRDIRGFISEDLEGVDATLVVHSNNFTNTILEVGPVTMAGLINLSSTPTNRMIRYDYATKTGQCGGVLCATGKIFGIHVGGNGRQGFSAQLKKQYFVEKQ

[2] = Cytotoxicity in mock-infected HI-HeLa cells (antirhinoviral assay, XTT); assay type: cell-based; conditions: human
[3] = system: HRV-14; assay: Antirhinoviral HI-HeLa Cell Culture Assay (Cell Protection Assay, XTT dye reduction); assay type: cell-based, human rhinovirus (HRV) serotype-14; conditions: HI-HeLa cells infected with HRV-14, m.o.i. 0.13, two days, XTT, read-out: EC50
How it was run: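 HI-HeLa cells infected with HRV-14 at m.o.i. 0.13 or mock-infected, then incubated with compounds for two days. Cell protection read by XTT/PMS formazan at 450/650 nm; therapeutic index = CC50/EC50.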

[4] = system: CVB-3; assay: Anticoxsackieviral HI-HeLa Cell Culture Assay (XTT dye reduction); assay type: cell-based, Coxsackie strain B-3 (CVB-3); conditions: HI-HeLa cells infected with CVB-3, m.o.i. 0.08, one day
Experimental: (§1) Specifically, HI-HeLa cells were infected wtih […] at a multiplicity of infection (m.o.i.) of 0.08 or mock-infected with medium only. Infected or mock-infected cells were resuspended at 8×10^5 cells per mL and incubated with appropriate concentrations of compound. One day later, XTT/PMS were added to test plates and the amount of formazan produced was quantified spectrophotometrically at 450/650 nm. […] The therapeutic index (TI) was calculated by dividing the CC50 by the EC50.
(§2) The Coxsackie strain B-3 (CVB-3) was purchased from American Type Culture Collection (ATCC). Virus stocks were propgated and antiviral assays were performed in Hi-HeLa cells (ATCC). Cells were grown in Minimal Essential Medium with 10% fetal bovine serum.

[5] = target: T2, Recombinant Rhinovirus 3C protease (RVP) serotype 2 (Human rhinovirus 2, UniProt P04936); assay: Inhibition of Rhinovirus Protease (fluorescence resonance energy transfer assay), serotype 2; assay type: biochemical, human rhinovirus (HRV)
T2 construct: Recombinant Rhinovirus 3C proteases from serotypes 14, 16, 2 or 89; made in house
T2 sequence (P04936 1508-1690): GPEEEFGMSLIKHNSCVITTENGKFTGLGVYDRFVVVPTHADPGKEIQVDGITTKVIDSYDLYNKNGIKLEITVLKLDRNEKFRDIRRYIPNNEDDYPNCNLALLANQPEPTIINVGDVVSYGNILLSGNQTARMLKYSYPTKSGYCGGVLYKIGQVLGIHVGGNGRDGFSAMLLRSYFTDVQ
Experimental: (§3) Stock solution (50 mM, in DMSO) of various compounds were prepared; dilutions were in the same solvent. Recombinant Rhinovirus 3C proteases from serotypes 14, 16, 2 or 89 were prepared by the following standard chromatographic procedures: (1) ion exchange using Q Sepharose Fast Flow from Pharmacia; (2) affinity chromatography using Affi-Gel Blue from Biorad; and (3) sizing using Sephadex G-100 from Pharmacia. Assays contained 2% DMSO, 50 mM tris pH 7.6, 1 mM EDTA, a compound at the indicated concentrations, approximately 1 μM substrate, and 50-100 nM protease. […] The kobs/I values were obtained from reactions initiated by addition of enzyme rather than substrate. RVP activity is measured in the fluorescence resonance energy transfer assay. The substrate was (N-terminal) DABCYL-([…]Gyl)-EDANS. In the uncleaved peptide, the EDANS fluorescence was quenched by the proximal DABCYL moeity. When the peptide was cleaved, the quenching was relieved, and activity was measured as an increase in fluorescence signal.
In the above table, all data is RVP serotype-14 unless otherwise noted in parentheses. All strains of human rhinovirus (HRV) were purchased from American Type Culture Collection (ATCC), except for serotype 14, which was produced from the infectious cDNA clone constructed and supplied to us by Dr. Roland Rueckert at the Institute for Molecular Virology, University of Wisconsin, Madison, Wisc. […] The data in the column designated kobs/I was measured from progress curves in enzyme start experiments.

[6] = system: Human Rhinovirus-serotype 10 (HRV-10); assay: Normal Human Bronchial Epithelial Cell Assay (MTT); assay type: cell-based; conditions: normal human bronchial cells, HRV-10 at m.o.i. 10, 3-4 days at 34° C., read-out: ED50 (the source's name)
Experimental: Normal human bronchial cells were obtained from cadavers and cultured. The cells were plated at 2×10^4 per well in a […] plate. They were allowed to adhere and grow for 24 hours in 200 μL of serum-free bronchial/tracheal epithelial cell growth medium at 37° C. with 5% CO2. Human Rhinovirus-serotype 10 (HRV-10) was purchased from American Type Culture Collection (ATCC). To start the assay, the supernatant was removed, and HRV-10 at an m.o.i. of 10 (virus particles/cell) was added to each well along with the appropriate amount of compound of formula I or II. The plate was then incubated at 34° C. After 3 hours the supernatant was removed, and 200 μL of media was added along with the same concentration of compound as used in the beginning of the assay. The plates were incubated for 3-4 days at 34° C. To determine the amount of cell growth, an MTT assay (0.5 mgs/mL), as described in Mosmann, T. J. J. Immunol. Methods 1983, 65, 55-63, which is incorporated herein by reference, was performed on the cells, and the plate was read at an optical density of 540 nm. The compounds were tested against control compound Pirodavir, obtained from Janssen Pharmaceuticals. The EC50 was measured as described above for the HI-HeLa Cell Culture Assay.

[7] = target: T3, Recombinant Rhinovirus 3C protease (RVP) serotype 89 (Human rhinovirus A serotype 89, UniProt P07210); assay: Inhibition of Rhinovirus Protease (fluorescence resonance energy transfer assay), serotype 89; assay type: biochemical, human rhinovirus (HRV)
T3 construct: Recombinant Rhinovirus 3C proteases from serotypes 14, 16, 2 or 89; made in house
T3 sequence (P07210 1522-1704): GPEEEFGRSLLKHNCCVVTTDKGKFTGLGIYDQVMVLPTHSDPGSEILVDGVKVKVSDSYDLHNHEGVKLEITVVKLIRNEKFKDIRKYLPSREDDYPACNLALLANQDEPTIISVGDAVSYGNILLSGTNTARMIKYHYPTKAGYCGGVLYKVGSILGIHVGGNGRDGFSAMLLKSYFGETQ
Experimental: as §3
In the above table, all data is RVP serotype-14 unless otherwise noted in parentheses. […] The data in the column designated kobs/I was measured from progress curves in enzyme start experiments.

[8] = Cytotoxicity in mock-infected HI-HeLa cells (anticoxsackieviral assay, XTT); assay type: cell-based; conditions: human; mock-infected HI-HeLa cells; one day; XTT
Experimental: as §1, with “The ability of compounds to protect calls against CVB-3 infection was measured by the XTT dye reduction method, which is described in Weislow, O. S., R. Kiser, D. L. Fine, J. Bader, R. H. Shoemaker, and M. R. Boyd, 1989, J. Natl. Cancer Inst. 81:577-586, which is incorporated herein by reference. Specifically,” for “Specifically,”
as §2

[9] = target: T4, Recombinant Rhinovirus 3C protease (RVP) serotype 16 (Human rhinovirus 16, UniProt Q82122); assay: Inhibition of Rhinovirus Protease (fluorescence resonance energy transfer assay), serotype 16; assay type: biochemical, human rhinovirus (HRV); conditions: pH 7.6; RVP serotype 16; progress curves in enzyme start experiments; read-out: kobs/I
T4 construct: Recombinant Rhinovirus 3C proteases from serotypes 14, 16, 2 or 89; made in house
T4 sequence (Q82122 1511-1693): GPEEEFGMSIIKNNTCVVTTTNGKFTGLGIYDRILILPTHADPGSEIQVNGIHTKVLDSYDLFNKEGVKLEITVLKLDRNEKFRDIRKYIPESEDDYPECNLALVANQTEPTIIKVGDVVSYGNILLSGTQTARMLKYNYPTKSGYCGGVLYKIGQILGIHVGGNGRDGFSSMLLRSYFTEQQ

[10] = system: HI-HeLa cells; assay: Cytotoxicity in mock-infected HI-HeLa cells (antirhinoviral assay, XTT); assay type: cell-based
[11] = system: HI-HeLa cells; assay: Cytotoxicity in mock-infected HI-HeLa cells (anticoxsackieviral assay, XTT); assay type: cell-based
Experimental: as §1, with “The ability of compounds to protect calls against CVB-3 infection was measured by the XTT dye reduction method, which is described in Weislow, O. S., R. Kiser, D. L. Fine, J. Bader, R. H. Shoemaker, and M. R. Boyd, 1989, J. Natl. Cancer Inst. 81:577-586, which is incorporated herein by reference. Specifically,” for “Specifically,”
as §2

[12] = mock-infected HI-HeLa cells, two days, XTT, read-out: CC50
[13] = pH 7.6, progress curves in enzyme start experiments, read-out: kobs/I
[14] = progress curves in enzyme start experiments

SMILES | Ki [1] [µM] | kinact/KI [1] [M⁻¹ s⁻¹] | CC50 at 2 days [2, 12] [µM] | EC50 ([3]; Rhinovirus B, HRV14, 48 h) [µM] | melting point | EC50 ([4]; 24 h) [µM] | EC50 ([6]; Epithelial cell) [µM] | CC50 at 1 day [8] [µM] | also measured
CCOC(=O)/C(F)=C\[C@H](CCC(N)=O)NC(=O)[C@H](Cc1ccccc1)NC(=O)[C@H](CC(C)C)NC(=O)OCc1ccccc1 [Compound 8, Ethyl-2-Fluoro-3-(CBZ-L-Leu-L-Phe-L-Gln)-E-Propenoate] | 36 | 61 | > 320 | > 320 | 210 to 211 °C | – | – | – | –
CC(=O)/C=C/[C@H](CCC(N)=O)NC(=O)[C@H](Cc1ccccc1)NC(=O)[C@H](CC(C)C)NC(=O)OCc1ccccc1 [Compound 13, 4-(CBZ-L-Leu-L-Phe-L-Gln)-E-3-Butene-2-one] | 6.5 | 54000 | 58.9 | 2 | – | > 100 | 0.0004 | > 100 | kinact/KI [5, 13]: 2400 M⁻¹ s⁻¹; kinact/KI [7, 13]: 5500 M⁻¹ s⁻¹; kinact/KI [9]: 9000 M⁻¹ s⁻¹
CCOC(=O)c1ccc(OCCC2CCN(c3ccc(C)nn3)CC2)cc1 [Pirodavir, reference compound] | – | – | – | 0.03 | – | > 100 | 0.0075 | > 100 | CC50 at 2 days [2]: > 10 µM
CC(C)C[C@H](NC(=O)OCc1ccccc1)C(=O)N[C@@H](Cc1ccccc1)C(=O)N[C@H](/C=C/C(=O)N(C)C)CCC(N)=O [Compound 22, N,N-Dimethyl-3-(CBZ-L-Leu-L-Phe-L-Gln)-E-Propenamide] | 4.3 | 1300 | 251 | 56.2 | 174 to 175 °C (dec.) | – | – | – | –
CON(C)C(=O)/C=C/[C@H](CCC(N)=O)NC(=O)[C@H](Cc1ccccc1)NC(=O)[C@H](CC(C)C)NC(=O)OCc1ccccc1 [Compound 37] | 18.8 | 5900 | > 100 | 4 | – | 17.8 | – | > 100 | –
CCOC(=O)/C=C/[C@H](CCC(N)=O)NC(=O)[C@H](Cc1ccccc1)NC(=O)[C@H](CC(C)C)NC(=O)OCc1ccccc1 [Compound 3, Ethyl-3-(CBZ-L-Leu-L-Phe-L-Gln)-E-Propenoate] | – | – | – | – | – | – | – | – | EC50 [4]: 39.8 µM; INHIB (percent inhibition) ([1]; RVP serotype-14, 0.1 μM compound, 10 minute preincubation with 50 nM RVP): 81(0.1) percent; kobs/I ([1]; RVP serotype-14, progress curves in enzyme start experiments): 37,000 M-1 sec-1; CC50 [10]: > 320 µM; kobs/I [5, 14]: 1,900 M-1 sec-1; EC50 [6]: 0.04 µM; EC50 [3]: 0.61 µM; kobs/I [7, 14]: 3,400 M-1 sec-1; CC50 [11]: > 320 µM
